The results in this text go back to PubChem BioAssay AID1794829.

SMILES strings stand for the structures. Records with an inconclusive call do not appear.

This assay deals with Solute carrier family 2, facilitated glucose transporter member 2 (Homo sapiens) (UniProt P11168). Kind of assay: SLC2A2-mediated glucose transport in cells – cell-based, flow cytometry, glucose FRET sensor, HEK293 JumpIN TRex, wild type, dose response (AID 1794829). The following applies: HEK293 JumpIN SLC2A2-OE. On the technique in general: Flow cytometry measures light scatter and fluorescence of single cells or particles in a stream.
Chain of Solute carrier family 2, facilitated glucose transporter member 2 (Homo sapiens) (P11168 whole entry, looked up): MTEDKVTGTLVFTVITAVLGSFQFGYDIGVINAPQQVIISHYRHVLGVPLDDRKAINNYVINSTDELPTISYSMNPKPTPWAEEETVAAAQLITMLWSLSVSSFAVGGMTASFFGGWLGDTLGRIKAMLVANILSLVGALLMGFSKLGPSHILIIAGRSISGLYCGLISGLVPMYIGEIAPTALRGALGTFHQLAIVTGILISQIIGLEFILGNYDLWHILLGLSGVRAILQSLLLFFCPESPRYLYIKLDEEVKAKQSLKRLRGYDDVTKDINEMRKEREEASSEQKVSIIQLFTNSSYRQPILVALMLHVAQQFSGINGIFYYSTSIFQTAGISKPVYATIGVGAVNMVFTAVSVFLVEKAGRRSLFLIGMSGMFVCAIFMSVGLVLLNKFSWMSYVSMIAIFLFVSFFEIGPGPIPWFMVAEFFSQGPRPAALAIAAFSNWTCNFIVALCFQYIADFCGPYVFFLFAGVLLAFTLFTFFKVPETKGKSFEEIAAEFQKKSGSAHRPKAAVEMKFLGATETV

For the molecule `OC[C@H]1OC(O)[C@H](O)[C@@H](O)[C@@H]1O` (stereo partly specified), the EC50 (substrate-induced FRET increase) is 710 µM.
